Drawing on ChEMBL document CHEMBL5550161, “Discovery of novel small molecules targeting the USP21/JAK2/STAT3 axis for the treatment of triple-negative breast cancer” (Eur J Med Chem, 2024), this text covers IC50, Activity and inhibition in vivo for 23 compounds.

Assay [1] concerns MDA-MB-231. Nature of the assay: Anti-proliferative activity against human MDA-MB-231 cells assessed as cell growth inhibition incubated for 72 hrs by MTT assay. It counts as functional, cell-based. As to conditions: MDA-MB-231, 72 h.
For assay [2], the system named is Hs-578T. Put plainly: Anti-proliferative activity against human Hs-578T cells assessed as cell growth inhibition incubated for 72 hrs by MTT assay. Type of assay: functional, cell-based. (In general: Formazan colour is commonly taken as a measure of viable cells.)
Assay [3] has as its system HCC1806. Put plainly: Anti-proliferative activity against human HCC1806 cells assessed as cell growth inhibition incubated for 72 hrs by MTT assay. Type of assay: functional, cell-based. The settings on record: HCC1806, 72 h.
The test system of assay [4] is HCC1806. Put plainly: Antitumor activity against human HCC1806 cells xenografted in Balb/c mouse assessed as reduction in tumor weight at 2.5 mg/kg, ip administered once a week measured after 14 days. It counts as functional, organism-based. As to conditions: time 14.0 day.
The subject of assay [5] is HCC1806. Nature of the assay: Antitumor activity against human HCC1806 cells xenografted in Balb/c mouse at 2.5 mg/kg, ip administered once a week measured after 14 days relative to control. Type of assay: functional. The settings on record: HCC1806, 336 h, time 14 day, read-out: TGI.
Assay [6] concerns MCF7. Put plainly: Anti-proliferative activity against human MCF7 cells assessed as cell growth inhibition incubated for 72 hrs by MTT assay. It counts as functional, cell-based. The settings on record: MCF7, 72 h.
Assay [7] addresses Tyrosine-protein kinase JAK2 (Homo sapiens, UniProt O60674). Put plainly: Inhibition of JAK2 (unknown origin).

Activity calls are given as the source filed them. No cut-off for these calls is given here. Some results are limits rather than exact numbers.

Tyrosine-protein kinase JAK2, sequence (O60674 whole entry): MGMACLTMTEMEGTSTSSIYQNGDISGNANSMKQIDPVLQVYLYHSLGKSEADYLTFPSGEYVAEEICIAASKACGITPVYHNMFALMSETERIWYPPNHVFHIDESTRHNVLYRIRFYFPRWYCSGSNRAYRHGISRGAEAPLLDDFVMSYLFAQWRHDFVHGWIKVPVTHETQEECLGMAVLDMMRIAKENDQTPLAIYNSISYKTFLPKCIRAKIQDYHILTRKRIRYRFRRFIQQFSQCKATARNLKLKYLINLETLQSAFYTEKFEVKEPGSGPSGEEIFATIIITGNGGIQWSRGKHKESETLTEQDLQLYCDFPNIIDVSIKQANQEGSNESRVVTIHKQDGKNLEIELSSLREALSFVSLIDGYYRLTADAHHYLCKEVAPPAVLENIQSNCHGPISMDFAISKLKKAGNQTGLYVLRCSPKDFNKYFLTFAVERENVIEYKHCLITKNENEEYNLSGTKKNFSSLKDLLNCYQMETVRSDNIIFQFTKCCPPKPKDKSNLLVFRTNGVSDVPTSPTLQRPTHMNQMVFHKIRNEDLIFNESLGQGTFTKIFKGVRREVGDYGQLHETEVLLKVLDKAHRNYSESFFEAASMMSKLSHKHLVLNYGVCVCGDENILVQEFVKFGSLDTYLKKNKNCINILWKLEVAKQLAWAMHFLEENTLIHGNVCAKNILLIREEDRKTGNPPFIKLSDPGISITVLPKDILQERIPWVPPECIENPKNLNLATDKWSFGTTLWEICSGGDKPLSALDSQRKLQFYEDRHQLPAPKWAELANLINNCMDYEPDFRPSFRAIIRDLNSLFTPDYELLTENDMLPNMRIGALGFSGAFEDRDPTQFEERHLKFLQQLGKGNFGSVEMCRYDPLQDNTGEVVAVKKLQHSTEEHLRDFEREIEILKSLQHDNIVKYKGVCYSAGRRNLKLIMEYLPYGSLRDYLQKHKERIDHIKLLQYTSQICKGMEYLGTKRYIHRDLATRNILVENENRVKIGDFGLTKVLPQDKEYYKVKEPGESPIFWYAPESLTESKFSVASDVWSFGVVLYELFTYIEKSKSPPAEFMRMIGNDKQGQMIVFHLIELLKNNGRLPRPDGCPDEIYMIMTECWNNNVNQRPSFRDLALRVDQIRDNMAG

What is called IC50 is the point on the concentration scale where inhibition reaches its midpoint. On to `COc1cccc2c1C(=O)c1c(O)c3c(c(O)c1C2=O)C[C@@](O)(C(=O)CO)C[C@@H]3O[C@H]1C[C@H](N)[C@H](O)[C@H](C)O1` [DOXORUBICIN], for which the IC50 in assay [1] was determined as 0.21 µM; in assay [2] it was 1.07 µM; in assay [3] it was 0.34 µM. Moreover, the outcome in assay [4] was Active. Besides, in assay [5], the inhibition in vivo at 2.5 mg/kg was found to be 43.2%.
With `COc1cc(Nc2cc(F)ccc2C(=O)NCCc2c[nH]c3cc(Br)ccc23)cc(OC)c1OC`, the IC50 in assay [6] is 3.1 µM; in assay [1] it was 2.14 µM; in assay [2] it was 22.1 µM; in assay [3], 1.84 µM.
As for `COc1cc(Br)c2c(CCNC(=O)c3ccc(F)cc3Nc3cc(OC)c(OC)c(OC)c3)c[nH]c2c1`, the IC50 in assay [6] is greater than 100 µM; in assay [1], 58.2 µM; in assay [2], greater than 100 µM; in assay [3], greater than 100 µM.
Turning to `COc1cc(Nc2cc(F)ccc2C(=O)NCCc2c[nH]c3c(Cl)cccc23)cc(OC)c1OC`, the IC50 was determined as 1.65 µM in assay [6], 1.09 µM in assay [1], 1.57 µM in assay [2] and 2.82 µM in assay [3].
The like results for `COc1cc(Nc2cc(C)ccc2C(=O)NCCc2c[nH]c3ccccc23)cc(OC)c1OC` were, in that order, greater than 100 µM, greater than 100 µM, greater than 100 µM and 26.5 µM.
`COc1cc(Nc2cc(F)ccc2C(=O)NCCc2c[nH]c3ccc(F)c(F)c23)cc(OC)c1OC`: the IC50 in assay [6] is 1.86 µM; in assay [1] it was 0.68 µM; in assay [2] it was 1.32 µM; in assay [3], 0.92 µM.
For `COc1cc(Nc2cc(F)ccc2C(=O)NCCc2c[nH]c3cccc(Br)c23)cc(OC)c1OC` the same measures were 4.37 µM, 3.55 µM, 7.97 µM and 2.16 µM.
For `COc1cc(Nc2cc(F)ccc2C(=O)NCCc2c[nH]c3ccc(C)cc23)cc(OC)c1OC` the same measures were 8.77 µM, 2.79 µM, 55.5 µM and 7.81 µM.
The like results for `COc1cc(Nc2cc(F)ccc2C(=O)NCCc2c[nH]c3ccc(Cl)cc23)cc(OC)c1OC` were, in that order, 8.75 µM, 2.2 µM, 41.3 µM and 11.3 µM.
Consider `COc1cc(Nc2cc(F)ccc2C(=O)NCCc2c[nH]c3c(Br)cccc23)cc(OC)c1OC`, for which the IC50 in assay [6] was 3.56 µM; in assay [1], 2.44 µM; in assay [2], 13.1 µM; in assay [3] it was 1.94 µM.
For `COc1cc(Nc2c(C)cccc2C(=O)NCCc2c[nH]c3ccccc23)cc(OC)c1OC` the same measures were greater than 100 µM, greater than 100 µM, greater than 100 µM and greater than 100 µM.
The like results for `COc1cc(Nc2cc(F)ccc2C(=O)NCCc2c[nH]c3c(C(F)(F)F)cccc23)cc(OC)c1OC` were, in that order, 8.98 µM, 4.03 µM, 19.4 µM and 10.5 µM.
The like results for `COc1cc(Nc2ccc(Cl)cc2C(=O)NCCc2c[nH]c3ccccc23)cc(OC)c1OC` were, in that order, greater than 100 µM, greater than 100 µM, greater than 100 µM and greater than 100 µM.
As for `COc1cc(Nc2cc(C)c(F)cc2C(=O)NCCc2c[nH]c3ccccc23)cc(OC)c1OC`, the IC50 in assay [6] is greater than 100 µM; in assay [1] it was 93.7 µM; in assay [2], 47.8 µM; in assay [3], 15 µM.
For `COc1cc(Nc2ccc(Br)cc2C(=O)NCCc2c[nH]c3ccccc23)cc(OC)c1OC` the same measures were greater than 100 µM, greater than 100 µM, greater than 100 µM and greater than 100 µM.
Take `COc1cc(Nc2c(C(=O)NCCc3c[nH]c4ccccc34)cccc2[N+](=O)[O-])cc(OC)c1OC`: the IC50 in assay [6] is greater than 100 µM; in assay [1], 31.3 µM; in assay [2], greater than 100 µM; in assay [3], greater than 100 µM.
In the case of `COc1cc(Nc2cc(F)ccc2C(=O)NCCc2c[nH]c3cc(F)c(F)cc23)cc(OC)c1OC`, the IC50 in assay [6] was found to be 50.6 µM; in assay [1] it was 1.68 µM; in assay [2] it was 27.3 µM; in assay [3] it was 20.2 µM.
For `COc1cc(Nc2cccc(Cl)c2C(=O)NCCc2c[nH]c3ccccc23)cc(OC)c1OC` the same measures were 41.5 µM, 95.1 µM, greater than 100 µM and greater than 100 µM.
For the compound `COc1cc(Nc2ccc(F)cc2C(=O)NCCc2c[nH]c3ccccc23)cc(OC)c1OC`, the IC50 is greater than 100 µM in assay [6], greater than 100 µM in assay [1], 55.8 µM in assay [2] and 12.5 µM in assay [3].
As for `COc1cc(Nc2ccccc2C(=O)NCCc2c[nH]c3ccccc23)cc(OC)c1OC`, the IC50 in assay [7] is greater than 10 µM; in assay [6] it was greater than 100 µM; in assay [1], 99.7 µM; in assay [2] it was 2.18 µM; in assay [3], 2.41 µM.
As to `COc1cc(Nc2cc(F)cc(F)c2C(=O)NCCc2c[nH]c3ccccc23)cc(OC)c1OC`, the IC50 in assay [6] is greater than 100 µM; in assay [1], 1.66 µM; in assay [2] it was 1.03 µM; in assay [3], 3.14 µM.
In the case of `COc1cc(Nc2cc(F)ccc2C(=O)NCCc2c[nH]c3cccc(C)c23)cc(OC)c1OC`, the IC50 in assay [6] was determined as 2.7 µM; in assay [1], 2.9 µM; in assay [2], 3.44 µM; in assay [3], 2.39 µM.
In the case of `COc1cc(Nc2cc(F)ccc2C(=O)NCCc2c[nH]c3cc(Cl)ccc23)cc(OC)c1OC`, the concentration for half-maximal inhibition (IC50) in assay [6] came to 12.2 µM; in assay [1], 3.08 µM; in assay [2], 57.7 µM; in assay [3] it was 8.46 µM.
